For data set [1], the target named is T1, taenia preparation isolated from caecum (Cavia porcellus).
T1 construct: The taenia preparation in a length of about 2 cm was isolated from caecum; from tissue; host or cells: guinea pig taenia caeci (isolated smooth muscle strip)
Kind of data set: Calcium antagonistic activity (isolated taenia preparation from caecum, Ca2+ concentration-response in K+-rich solution). As to conditions: guinea pig taenia caeci; Ca2+-free, K+-rich Ringer-Lock solution, 30±1° C.; CaCl2 cumulatively added; read-out: Calcium antagonistic activity (pA2 values, mean ± standard error) (converted). The data set is classed as cell-based. On the procedure:
Male guinea pigs, weighing 405-500 g, were stunned and bled. The taenia preparation in a length of about 2 cm was isolated from caecum and suspended in an organ bath filled with Ca^2+ -free Ringer-Lock solution (composition, mM: NaCl 154, KCl 5.6, NaHCO3 2.3, glucose 5.5). The bathing solution was maintained at 30±1° C. and bubbled with air. The contractile response was recorded using an isotonic transducer (TD-112S made by Nihon Kohden Co., Ltd.) under a load of 0.5 g.
After sufficient incubation to remove Ca^2+, the bathing solution was replaced by Ca^2+ -free, K^+ -rich Ringer-Lock solution (composition, mM: NaCl 59.6, KCl 100, NaHCO3 2.3, glucose 5.5). An aqueous solution of CaCl2 ([…]) was cumulatively added to the bathing solution every 10 minutes, and a concentration-response curve for Ca^2+ was obtained. After washing out Ca^2+ the same procedure as above was carried out in the presence of each of the test compounds, and the pA2 value of the calcium antagonistic activity was calculated from the difference between the concentration-response curves obtained in the absence and presence of the test compound.
Each of the test compounds was dissolved in 5% ethanol and added to the bathing solution (the final concentration of ethanol was 0.05%).

For a further data set, the system named is Mongrel dogs. The experiment in a line: Coronary vasodilating activity and hypotensive activity in anesthetized dogs. The data set is classed as in vivo, dog. The following applies: Canis lupus familiaris, iv; for ED15: read-out: Mean systemic blood pressure lowering activity MBP-DD15; for ED75: dose which increases coronary blood flow by 75%, anesthetized mongrel dogs, injected into femoral vein, 0.03 to 0.3 mg/kg, read-out: Coronary blood flow increasing activity CBF-ID75. On the procedure: Coronary vasodilating activity was examined by measuring the amount of coronary blood flow as an index. Mongrel dogs weighing 10 to 19 kg were anesthetized by intravenously injecting sodium pentobarbital (30 mg/kg) and thoracotomized at the 5th left intercostal space under artificial ventilation. After incision of the pericardiac membrane, a flow probe was placed at the circumflex banch of the left coronary artery and led to an electromagnetic flow meter (MFV-2100 made by Nihon Kohden Co., Ltd.). The systemic blood pressure of the animals was measured by a pressure transducer (MPU-0.5 made by Nihon Kohden Co., Ltd.) connected to the cannulated left femoral artery. The coronary blood flow and the systemic blood pressure were recorded on a polygraph (RM-85 made by Nihon Kohden Co., Ltd.). Each of the test compounds was dissolved in ethanol/saline solution (1/1, V/V) and injected into the femoral vein.
Each of the test compounds was administered in a dose of 0.03 to 0.3 mg/kg, and doses which increase the coronary blood flow by 75% (CBF-ID75) and decrease the mean systemic blood pressure by 15% (MDP-DD15) were calculated from the regression lines.

A short description of the next data set: Acute toxicity, oral. The following applies: mouse, in vivo, ddY male mice, suspended in 0.5% carboxymethyl cellulose, 7 days.

T1 sequence (O35505 whole entry): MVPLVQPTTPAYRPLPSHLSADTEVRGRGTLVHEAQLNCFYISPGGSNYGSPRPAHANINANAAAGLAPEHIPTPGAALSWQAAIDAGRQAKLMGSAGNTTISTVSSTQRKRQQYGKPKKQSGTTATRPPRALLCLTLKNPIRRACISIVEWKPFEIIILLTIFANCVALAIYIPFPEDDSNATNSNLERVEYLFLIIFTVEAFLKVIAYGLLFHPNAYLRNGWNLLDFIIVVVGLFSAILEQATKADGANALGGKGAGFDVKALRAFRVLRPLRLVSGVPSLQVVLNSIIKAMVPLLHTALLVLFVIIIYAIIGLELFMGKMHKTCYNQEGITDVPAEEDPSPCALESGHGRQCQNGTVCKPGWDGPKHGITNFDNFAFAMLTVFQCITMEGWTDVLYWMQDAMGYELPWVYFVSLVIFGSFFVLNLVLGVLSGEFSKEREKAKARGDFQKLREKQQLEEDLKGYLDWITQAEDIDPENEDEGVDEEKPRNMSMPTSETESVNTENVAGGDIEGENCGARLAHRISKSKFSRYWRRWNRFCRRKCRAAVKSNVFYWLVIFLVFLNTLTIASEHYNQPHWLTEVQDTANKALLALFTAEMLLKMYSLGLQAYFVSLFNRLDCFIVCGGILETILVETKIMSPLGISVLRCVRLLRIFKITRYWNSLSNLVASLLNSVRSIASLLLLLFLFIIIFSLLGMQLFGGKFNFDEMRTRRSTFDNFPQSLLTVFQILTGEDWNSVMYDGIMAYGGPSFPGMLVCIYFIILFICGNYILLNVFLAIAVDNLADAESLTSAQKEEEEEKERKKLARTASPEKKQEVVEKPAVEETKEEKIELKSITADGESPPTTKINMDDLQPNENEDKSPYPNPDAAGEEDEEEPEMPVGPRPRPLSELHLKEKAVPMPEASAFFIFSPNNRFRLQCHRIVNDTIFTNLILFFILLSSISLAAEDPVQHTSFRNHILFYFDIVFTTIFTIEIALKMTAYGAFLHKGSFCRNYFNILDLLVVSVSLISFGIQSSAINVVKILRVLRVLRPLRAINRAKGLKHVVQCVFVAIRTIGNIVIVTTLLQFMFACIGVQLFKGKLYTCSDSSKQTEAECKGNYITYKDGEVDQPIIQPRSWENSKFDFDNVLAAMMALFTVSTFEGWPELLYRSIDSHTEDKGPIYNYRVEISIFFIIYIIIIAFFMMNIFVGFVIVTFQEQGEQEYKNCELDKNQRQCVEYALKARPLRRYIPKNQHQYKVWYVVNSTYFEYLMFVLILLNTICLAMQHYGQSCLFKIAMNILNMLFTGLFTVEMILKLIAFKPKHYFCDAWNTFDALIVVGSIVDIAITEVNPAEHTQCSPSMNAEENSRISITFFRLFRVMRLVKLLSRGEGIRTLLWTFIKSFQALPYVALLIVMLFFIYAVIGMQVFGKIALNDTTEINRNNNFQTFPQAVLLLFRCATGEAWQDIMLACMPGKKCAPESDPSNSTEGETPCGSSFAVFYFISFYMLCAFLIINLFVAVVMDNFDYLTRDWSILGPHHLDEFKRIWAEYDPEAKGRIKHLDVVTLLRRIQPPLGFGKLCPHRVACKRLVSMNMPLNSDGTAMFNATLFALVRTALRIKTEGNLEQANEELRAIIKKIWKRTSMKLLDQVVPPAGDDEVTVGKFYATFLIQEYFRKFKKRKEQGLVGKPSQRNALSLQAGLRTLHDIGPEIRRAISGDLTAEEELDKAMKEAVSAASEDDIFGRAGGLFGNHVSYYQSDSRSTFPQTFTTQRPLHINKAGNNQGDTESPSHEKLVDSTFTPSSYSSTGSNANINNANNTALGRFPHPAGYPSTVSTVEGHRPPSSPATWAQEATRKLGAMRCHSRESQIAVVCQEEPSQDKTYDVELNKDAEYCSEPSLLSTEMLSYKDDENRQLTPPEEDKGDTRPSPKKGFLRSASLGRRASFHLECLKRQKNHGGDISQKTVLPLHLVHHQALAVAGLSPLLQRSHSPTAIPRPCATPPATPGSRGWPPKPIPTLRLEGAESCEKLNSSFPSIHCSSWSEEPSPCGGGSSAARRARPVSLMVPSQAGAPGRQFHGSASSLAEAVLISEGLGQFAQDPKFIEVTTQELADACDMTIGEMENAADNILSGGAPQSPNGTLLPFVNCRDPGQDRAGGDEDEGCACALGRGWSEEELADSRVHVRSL

`CCOP(=O)(Cc1ccc(-c2nc3ccccc3s2)cc1)N1CCCC1=O` (centres unmarked) [Compound 100, Ethyl 4-(benzothiazol-2-yl)benzyl-(2-oxopyrrolidino)phosphinate]: the Kb in data set [1] was 29.5 nM. Moreover, in the data set on Mongrel dogs, the ED15 worked out at 0.0387 mg/kg and the ED75 was 0.044 mg/kg. In “Acute toxicity, oral”, the LD50 at 168 h is above 1000 mg/kg.

For `CCOP(=O)(Cc1ccc(-c2nc3ccccc3s2)cc1)N1CCCCC1=O` (centres unmarked) [Compound 101, Ethyl 4-(benzothiazol-2-yl)benzyl-(2-oxopiperidino)phosphinate], the Kb in data set [1] was 35.5 nM. Further, in the data set on Mongrel dogs, the ED15 is 0.0582 mg/kg and the ED75 was 0.06 mg/kg. Besides, in the data set “Acute toxicity, oral”, the LD50 at 168 h is above 1000 mg/kg.

In the case of `CCOP(=O)(Cc1ccc(-c2nc3ccccc3s2)cc1)N1CCCCCC1=O` (centres unmarked) [Compound 102, Ethyl 4-(benzothiazol-2-yl)benzyl-(2-oxohomopiperidino)phosphinate], the Kb in data set [1] was 34.7 nM. Moreover, in the data set with Mongrel dogs, the ED15 is 0.054 mg/kg and the ED75 was 0.0573 mg/kg. Moreover, the LD50 at 168 h in “Acute toxicity, oral” is above 1000 mg/kg.

In the case of `CCOP(=O)(Cc1ccc(-c2nc3cc(F)ccc3s2)cc1)N1CCCC1=O` (centres unmarked) [Compound 103, Ethyl 4-(5-fluorobenzothiazol-2-yl)benzyl(2-oxopyrrolidino)phosphinate], the Kb in data set [1] was 18.6 nM. For the same molecule, in the data set on Mongrel dogs, the ED15 is 0.0901 mg/kg and the ED75 was 0.0644 mg/kg. The molecule also showed an LD50 at 168 h in “Acute toxicity, oral” above 1000 mg/kg.

On to `CCOP(=O)(Cc1ccc(-c2nc3cc(F)ccc3s2)cc1)N1CCCCC1=O` (centres unmarked) [Compound 104, Ethyl 4-(5-fluorobenzothiazol-2-yl)benzyl(2-oxopiperidino)phosphinate], for which the Kb in data set [1] is 20.9 nM. Also, in the data set with Mongrel dogs, the ED15 is 0.0629 mg/kg and the ED75 amounted to 0.0647 mg/kg. The molecule further yielded an LD50 at 168 h in “Acute toxicity, oral” above 1000 mg/kg.

`CCOP(=O)(Cc1ccc(-c2nc3cc(F)ccc3s2)cc1)N1CCCCCC1=O` (centres unmarked) [Compound 105, Ethyl 4-(5-fluorobenzothiazol-2-yl)benzyl(2-oxohomopiperidino)phosphinate]: the Kb in data set [1] was 18.6 nM. Besides, in the data set on Mongrel dogs, the ED15 came to 0.0712 mg/kg and the ED75 is 0.0583 mg/kg. This molecule also returned an LD50 at 168 h in the data set “Acute toxicity, oral” above 1000 mg/kg.

Take `CCOP(=O)(Cc1ccc(-c2nc3cc(F)ccc3s2)cc1)N1CCOC1=O` (centres unmarked) [Compound 109, Ethyl 4-(5-fluorobenzothiazol-2-yl)benzyl(2-oxo-1,3-oxazolidino)phosphinate]: in data set [1], the Kb was 20.4 nM. Moreover, in the data set with Mongrel dogs, the ED15 was determined as 0.0748 mg/kg and the ED75 amounted to 0.0615 mg/kg. In the data set “Acute toxicity, oral”, the LD50 at 168 h is above 1000 mg/kg.

With `CCOP(=O)(Cc1ccc(-c2nc3ccccc3s2)cc1)OCC` [Compound A, diethyl 4-(benzothiazol-2-yl)benzylphosphonate, reference compound], the Kb in data set [1] is 61.7 nM. Besides, in the data set on Mongrel dogs, the ED15 turned out to be 0.158 mg/kg and the ED75 was 0.116 mg/kg. For the same molecule, the LD50 at 168 h in the data set “Acute toxicity, oral” is above 1000 mg/kg.
